Data: ChEMBL document CHEMBL1155566, “Antifeedant activity of withanolides from Salpichroa origanifolia on Musca domestica” (J Nat Prod, 2000)
Calls of active or inactive are those of the source. No cut-off for these calls is given here.

Tests used:
Musca domestica [1] = assay: Antifeedant activity in Musca domestica CIPEIN larvae assessed as time needed to pupate 50% at 100 ppm; format: functional
Musca domestica [2] = assay: Antifeedant activity against Musca domestica CIPEIN larvae assessed as inhibition of larvae development after 18 days; format: functional, organism-based
Musca domestica [3] = assay: Antifeedant activity against Musca domestica CIPEIN larvae assessed as time needed to pupate 50% at 500 ppm; format: functional
Musca domestica [4] = assay: Antifeedant activity against Musca domestica CIPEIN larvae assessed as larval mortality at 200 ppm after 18 days; format: functional
Musca domestica [5] = assay: Antifeedant activity against Musca domestica CIPEIN larvae supplied with high yeast and milk concentration assessed as time needed to pupate 50%; format: functional
Musca domestica [6] = assay: Antifeedant activity against Musca domestica CIPEIN larvae supplied with medium yeast and milk concentration assessed as time needed to pupate 50%; format: functional

Row | Compound | Activity (Musca domestica [1]) [days] | EC50 (Musca domestica [2]) [ppm] | Activity (Musca domestica [3]) | Activity (Musca domestica [4]) [%] | Activity (Musca domestica [5]) [days] | Activity (Musca domestica [6]) [days]
1 | C[C@@H](c1ccc2c(c1)CC[C@H]1[C@H]2C[C@@H](O)[C@@]2(O)CC=CC(=O)[C@]12C)[C@@H]1C[C@@H]2O[C@@H]2[C@H](O)O1 [SALPICHROLIDE C] | 7.8 | 310 | 8.1 days | 100 |  | 
2 | C[C@@H](c1ccc2c(c1)CC[C@H]1[C@H]2C[C@@H]2O[C@@]23CC=CC(=O)[C@]13C)[C@@H]1C[C@@H]2O[C@@H]2C(=O)O1 |  |  | inactive |  |  | 
3 | C[C@@H](c1ccc2c(c1)CC[C@H]1[C@H]2C[C@@H]2O[C@@]23CC=CC(=O)[C@]13C)[C@@H]1C[C@@H]2O[C@@H]2[C@H](O)O1 [SALPICHROLIDE A] | 7.9 | 290 | 10.3 days | 100 | 6.9 | 12.2
4 | CC(=O)Oc1cc([C@H](C)[C@@H]2C[C@@H]3O[C@@H]3[C@H](OC(C)=O)O2)cc2c1[C@@H]1C[C@@H]3O[C@@]34CC=CC(=O)[C@]4(C)[C@H]1CC2 |  |  | Active |  |  | 
5 | C[C@@H](c1cc(O)c2c(c1)CC[C@H]1[C@H]2C[C@@H]2O[C@@]23CC=CC(=O)[C@]13C)[C@@H]1C[C@@H]2O[C@@H]2[C@H](O)O1 [SALPICHROLIDE G] | 7.7 | 203 | 8 days | 100 |  | 
6 | C[C@@H](c1ccc2c(c1)CC[C@H]1[C@H]2CC(=O)[C@@]2(O)CC=CC(=O)[C@]12C)[C@@H]1C[C@@H]2O[C@@H]2C(=O)O1 |  |  | inactive |  |  | 
